The term IC50 denotes the concentration that inhibits the measured activity by half. What is called inhibition is the percentage by which the read-out fell short of the control.

Data on 28 compounds can be found in patent US8134015B2, “Compound inhibiting in vivo phosphorous transport and medicine containing the same” (Kyowa Hakko Kirin Co., Ltd., priority 2003, dated 2012).

For the test, the target named is T1, rat NaPi-2b (Rattus norvegicus, UniProt Q9JJ09).
T1 construct: expressed in transfected cells; host or cells: Xenopus oocytes injected with cRNA
T1 sequence (Q9JJ09 1-695): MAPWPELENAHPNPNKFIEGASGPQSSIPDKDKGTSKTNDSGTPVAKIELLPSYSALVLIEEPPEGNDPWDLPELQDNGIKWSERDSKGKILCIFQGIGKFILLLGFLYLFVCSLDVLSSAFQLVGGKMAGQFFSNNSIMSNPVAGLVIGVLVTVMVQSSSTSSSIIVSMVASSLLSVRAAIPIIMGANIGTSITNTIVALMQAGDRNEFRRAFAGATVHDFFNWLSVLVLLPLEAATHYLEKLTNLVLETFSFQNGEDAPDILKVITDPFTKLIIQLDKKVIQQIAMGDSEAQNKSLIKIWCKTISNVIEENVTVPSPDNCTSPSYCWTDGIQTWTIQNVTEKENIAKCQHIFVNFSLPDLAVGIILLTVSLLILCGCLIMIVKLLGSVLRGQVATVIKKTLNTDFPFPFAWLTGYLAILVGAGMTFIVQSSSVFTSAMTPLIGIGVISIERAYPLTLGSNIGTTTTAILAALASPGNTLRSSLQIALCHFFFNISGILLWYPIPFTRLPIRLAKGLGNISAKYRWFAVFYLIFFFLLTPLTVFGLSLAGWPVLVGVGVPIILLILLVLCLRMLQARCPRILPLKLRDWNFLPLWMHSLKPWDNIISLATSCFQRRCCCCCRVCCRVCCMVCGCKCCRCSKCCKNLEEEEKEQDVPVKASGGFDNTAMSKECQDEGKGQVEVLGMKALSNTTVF
In words: Sodium-dependent phosphate uptake of Xenopus oocytes which expressed NaPi-2b (32P). In kind it is cell-based. As to conditions: for IC50: Xenopus oocytes expressing rat NaPi-2b, 32P radioactive phosphorus, read-out: IC50 (phosphate uptake inhibitory activity); for inhibition at 300 µM: phosphate uptake, oocytes expressing rat NaPi-2b, determined from inhibition curve. The method, boiled down:
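Inhibition at 300 μM and 100 μM was read off one inhibition curve of 32P phosphate uptake. Uptake was measured in Xenopus oocytes cultured 2 days after injection of cRNA for cloned rat NaPi-2b.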

On to `Cc1ccc(/C=N/NC(=O)c2ccccc2NC(=O)c2ccccn2)cc1C` [Compound 507, Pyridin-2-carboxylic acid [2-(3,4-dimethyl-benzylidene-hydrazinocarbonyl)-phenyl]-amide], for which the IC50 was 1860 nM.

As to `O=C(Nc1ccccc1C(=O)N/N=C/c1ccc(Cl)c(C(F)(F)F)c1)c1ccccn1` [Compound 508, Pyridin-2-carboxylic acid [2-(4-chloro-3-trifluoromethyl-benzylidene-hydrazinocarbonyl)-phenyl]-amide], the IC50 stood at 480 nM.

For the compound `O=C(N/N=C/c1cccc(F)c1)c1cc(Br)ccc1NC(=O)C1CCCCC1` [Compound 509, Cyclohexanecarboxylic acid [4-bromo-2-(3-fluoro-benzylidene-hydrazinocarbonyl)-phenyl]-amide], the IC50 worked out at 13600 nM.

With `O=C(Nc1ccc(Br)cc1C(=O)N/N=C/c1cccc(F)c1)c1ccno1` [Compound 510, Isoxazole-5-carboxylic acid [4-bromo-2-(3-fluoro-benzylidene-hydrazinocarbonyl)-phenyl]-amide], the IC50 was determined as 1480 nM.

Take `Cc1cccc(/C=N/NC(=O)c2cc(Br)ccc2NC(=O)c2ccno2)c1` [Compound 511, Isoxazole-5-carboxylic acid [4-bromo-2-(3-methyl-benzylidene-hydrazinocarbonyl)-phenyl]-amide]: the 50% inhibitory concentration (IC50) worked out at 2160 nM.

For `Cc1ccc(/C=N/NC(=O)c2cc(Br)ccc2NC(=O)c2ccno2)cc1C` [Compound 512, Isoxazole-5-carboxylic acid [4-bromo-2-(3,4-dimethyl-benzylidene-hydrazinocarbonyl)-phenyl]-amide], the IC50 worked out at 28300 nM.

Regarding `O=C(Nc1ccc(Br)cc1C(=O)N/N=C/c1ccc(Cl)c(C(F)(F)F)c1)c1ccno1` [Compound 513, Isoxazole-5-carboxylic acid [4-bromo-2-(4-chloro-3-trifluoromethyl-benzylidene-hydrazinocarbonyl)-phenyl]-amide], the IC50 was determined as 16000 nM.

Take `Cc1cc(C(=O)Nc2ccccc2C(=O)N/N=C/c2cccc(F)c2)c(C)o1` [Compound 514, 2,5-Dimethyl-furan-3-carboxylic acid [2-(3-fluoro-benzylidene-hydrazinocarbonyl)-phenyl]-amide]: the IC50 was determined as 2150 nM.

As to `Cc1cc(C(=O)Nc2ccccc2C(=O)N/N=C/c2ccc(F)cc2)c(C)o1` [Compound 515, 2,5-Dimethyl-furan-3-carboxylic acid [2-(4-fluoro-benzylidene-hydrazinocarbonyl)-phenyl]-amide], the IC50 stood at 1900 nM.

With `Cc1cccc(/C=N/NC(=O)c2ccccc2NC(=O)c2cc(C)oc2C)c1` [Compound 516, 2,5-Dimethyl-furan-3-carboxylic acid [2-(3-methyl-benzylidene-hydrazinocarbonyl)-phenyl]-amide], the IC50 is 2130 nM.

For the compound `COc1ccc(C(=O)Nc2scc(C)c2C(=O)N/N=C/c2cccc(F)c2)cc1OC` [Compound 517, N-[3-(3-Fluoro-benzylidene-hydrazinocarbonyl)-4-methyl-thiophen-2-yl]-3,4-dimethoxy-benzamide], the half-maximal inhibitory concentration (IC50) was determined as 1710 nM.

As for `COc1ccc(C(=O)Nc2scc(C)c2C(=O)N/N=C/c2cccc(C)c2)cc1OC` [Compound 518, 3,4-Dimethoxy-N-[4-methyl-3-(3-methyl-benzylidene-hydrazinocarbonyl)-thiophen-2-yl]-benzamide], the IC50 was 1520 nM.

Take `COc1ccc(C(=O)Nc2scc(C)c2C(=O)N/N=C/c2ccc(C)cc2)cc1OC` [Compound 519, 3,4-Dimethoxy-N-[4-methyl-3-(4-methyl-benzylidene-hydrazinocarbonyl)-thiophen-2-yl]-benzamide]: the IC50 is 1720 nM.

Turning to `COc1ccc(C(=O)Nc2scc(C)c2C(=O)N/N=C/c2ccc(C)c(C)c2)cc1OC` [Compound 521, N-[3-(3,4-Dimethyl-benzylidene-hydrazinocarbonyl)-4-methyl-thiophen-2-yl]-3,4-dimethoxy-benzamide], the IC50 is 1240 nM.

Turning to `COc1ccc(C(=O)Nc2scc(C)c2C(=O)N/N=C/c2ccc(Cl)c(C(F)(F)F)c2)cc1OC` [Compound 522, N-[3-(4-Chloro-3-trifluoromethyl-benzylidene-hydrazinocarbonyl)-4-methyl-thiophen-2-yl]-3,4-dimethoxy-benzamide], the IC50 was 1090 nM.

In turn, `Cc1ccc(/C=N/NC(=O)c2scc(C)c2NC(=O)c2cccc(CSc3nc[nH]n3)c2)cc1C` [Compound 523, N-[2-(3,4-Dimethyl-benzylidene-hydrazinocarbonyl)-4-methyl-thiophen-3-yl]-3-(1H-[1,2,4]triazol-3-ylsulfanylmethyl)-benzamide] displayed an inhibition at 300 µM of 50.1%.

`Cc1csc(C(=O)N/N=C/c2cccc(F)c2)c1NC(=O)c1cccc(CSc2nc[nH]n2)c1` [Compound 524, N-[2-(3-Fluoro-benzylidene-hydrazinocarbonyl)-4-methyl-thiophen-3-yl]-3-(1H-[1,2,4]triazol-3-ylsulfanylmethyl)-benzamide]: the inhibition at 300 µM stood at 42.8%.

The compound `Cc1ccc(/C=N/NC(=O)c2scc(C)c2NC(=O)c2cccc(CSCCCO)c2)cc1C` [Compound 525, N-[2-(3,4-Dimethyl-benzylidene-hydrazinocarbonyl)-4-methyl-thiophen-3-yl]-3-(3-hydroxy-propylsulfanylmethyl)-benzamide] displayed an inhibition at 300 µM of 38.9%.

As for `Cc1ccc(/C=N/NC(=O)c2scc(C)c2NC(=O)c2cccc(CSCCCO)c2)cc1` [Compound 526, 3-(3-Hydroxy-propylsulfanylmethyl)-N-[4-methyl-2-(4-methyl-benzylidene-hydrazinocarbonyl)-thiophen-3-yl]-benzamide], the inhibition at 300 µM was 40.2%.

Consider `Cc1csc(C(=O)N/N=C/c2cccc(F)c2)c1NC(=O)c1cccc(CSCCCO)c1` [Compound 527, N-[2-(3-Fluoro-benzylidene-hydrazinocarbonyl)-4-methyl-thiophen-3-yl]-3-(3-hydroxy-propylsulfanylmethyl)-benzamide], for which at 300 µM the inhibition was 40.9%.

As to `CCN(CC)CCN(C)Cc1cccc(C(=O)Nc2c(C)csc2C(=O)N/N=C/c2ccc(F)cc2)c1` [Compound 528, 3-{[(2-Diethylamino-ethyl)-methyl-amino]-methyl}-N-[2-(4-fluoro-benzylidene-hydrazinocarbonyl)-4-methyl-thiophen-3-yl]-benzamide], at 300 µM the inhibition was 58.4%.

The compound `CCN(CC)CCN(C)Cc1cccc(C(=O)Nc2c(C)csc2C(=O)N/N=C/c2cccc(F)c2)c1` [Compound 529, 3-{[(2-Diethylamino-ethyl)-methyl-amino]-methyl}-N-[2-(3-fluoro-benzylidene-hydrazinocarbonyl)-4-methyl-thiophen-3-yl]-benzamide] came in with an inhibition at 300 µM of 81%.

In the case of `CCN(CC)CCN(C)Cc1cccc(C(=O)Nc2c(C)csc2C(=O)N/N=C/c2ccc(OC)cc2)c1` [Compound 530, 3-{[(2-Diethylamino-ethyl)-methyl-amino]-methyl}-N-[2-(4-methoxy-benzylidene-hydrazinocarbonyl)-4-methyl-thiophen-3-yl]-benzamide], the inhibition at 300 µM amounted to 38.2%.

Compound `COc1ccc(/C=N/NC(=O)c2scc(C)c2NC(=O)c2cccc(CN3CCC(N4CCCCC4)CC3)c2)cc1` [Compound 531, 3-[1,4′]Bipiperidinyl-1′-ylmethyl-N-[2-(4-methoxy-benzylidene-hydrazinocarbonyl)-4-methyl-thiophen-3-yl]-benzamide] gave an inhibition at 300 µM of 35.7%.

`Cc1ccc(/C=N/NC(=O)c2scc(C)c2NC(=O)c2cccc(CN3CCN(CCO)CC3)c2)cc1C` [Compound 532, N-[2-(3,4-Dimethyl-benzylidene-hydrazinocarbonyl)-4-methyl-thiophen-3-yl]-3-[4-(2-hydroxy-ethyl)-piperazin-1-ylmethyl]-benzamide] returned an inhibition at 300 µM of 76%.

Turning to `Cc1ccc(/C=N/NC(=O)c2scc(C)c2NC(=O)c2cccc(CN3CCN(CCO)CC3)c2)cc1` [Compound 533, 3-[4-(2-Hydroxy-ethyl)-piperazin-1-ylmethyl]-N-[4-methyl-2-(4-methyl-benzylidene-hydrazinocarbonyl)-thiophen-3-yl]-benzamide], the inhibition at 300 µM is 36.9%.

`Cc1csc(C(=O)N/N=C/c2ccc(F)cc2)c1NC(=O)c1cccc(CN2CCN(CCO)CC2)c1` [Compound 534, N-[2-(4-Fluoro-benzylidene-hydrazinocarbonyl)-4-methyl-thiophen-3-yl]-3-[4-(2-hydroxy-ethyl)-piperazin-1-ylmethyl]-benzamide] gave an inhibition at 300 µM of 43.8%.

As to `Cc1csc(C(=O)N/N=C/c2cccc(F)c2)c1NC(=O)c1cccc(CN2CCN(CCO)CC2)c1` [Compound 535, N-[2-(3-Fluoro-benzylidene-hydrazinocarbonyl)-4-methyl-thiophen-3-yl]-3-[4-(2-hydroxy-ethyl)-piperazin-1-ylmethyl]-benzamide], the inhibition at 300 µM is 53%.
